Structures are written as SMILES. Like-named read-outs stand apart in the source and are kept apart here.

Assay [1] has as its system (CUG)10 RNA (SEQ ID NO: 3). Briefly: SPR binding to immobilized biotinylated RNA. The note with it: (CUG)10; for improvement in affinity relative to compound 1: SPR KD versus filter-binding KD of compound 1. In general terms: Surface plasmon resonance follows binding to a sensor surface in real time, without labels.
The next assay addresses (CUG)10 RNA. Briefly: Fluorescence titration (benzo[g]quinoline quenching). Particulars: (CUG)10, 1 μM compound in HBS-N, read-out: Apparent KD. Format: binding. The procedure:
The benzo[g]quinoline moiety is fluorescent, with excitation and emission maxima at 362 nm and 439 nm respectively in methanol. Fluorescence titration binding measurements were performed on a Cary Eclipse fluorescence spectrophotometer using a 10 mm path-length semimicro quartz fluorescence cell with 400 μL sample holding capacity. Absorbance measurements were carried out on a UV-Visible spectrophotometer (Shimadzu, UV-1601PC) using a 1 mL (1 cm path-length) quartz cell. Spectroscopic grade anhydrous methanol used in the measurement of relative quantum yield of the 2-ethyl benzo[g]quinoline carboxylic acid was purchased from Alfa Aesar and was used without further purification. For these measurements, known procedures were used (Lee and Grissom, “Design, Synthesis, and Characterization of Fluorescent Cobalamin Analogues with High Quantum Efficiencies,” Org. Lett. 11:2499-2502 (2009); Joseph R. Lakowicz, Principles of Fluorescence Spectroscopy, 2nd edition (Kluwer Academic/Plenum Publishers, 1999), which are hereby incorporated by reference in their entirety). Briefly, RNA (10 μM stock) in HBS-N buffer was titrated into a solution of 1 μM compound in HBS-N. After each addition of RNA, ten minutes were allowed for equilibration before recording the change in fluorescence at 468.5 nm. Fluorescence units (“FU”) were then corrected for dilution and the FU after each addition was subtracted from the FU at zero RNA concentration to give AFU. Following saturation, AFU was plotted against RNA concentration using Origin 7 (OriginLab, Inc.), and fitted to a 1:1 Langmuir binding model to obtain apparent dissociation constants (Kn). […]
Selected equilibrium affinities for (CUG)10 were confirmed by fluorescence titration. The quantum yield of the ethylbenzo[g]quinoline carboxylic acid (compound 2), relative to quinine sulfate, was determined to be 0.64 (FIGS. 5A-F). […] Apparent KD values measured in this manner are consistent with those obtained by SPR (Table 6); that they are not identical to SPR-measured values likely results from the differing formats of the two methods. […]

A further assay concerns yeast tRNA. Briefly: Fluorescence titration control. It is filed as binding. Particulars: yeast tRNA titrated into a mixture of compounds 4 and 5. The procedure:
The benzo[g]quinoline moiety is fluorescent, with excitation and emission maxima at 362 nm and 439 nm respectively in methanol. Fluorescence titration binding measurements were performed on a Cary Eclipse fluorescence spectrophotometer using a 10 mm path-length semimicro quartz fluorescence cell with 400 μL sample holding capacity. Absorbance measurements were carried out on a UV-Visible spectrophotometer (Shimadzu, UV-1601PC) using a 1 mL (1 cm path-length) quartz cell. Spectroscopic grade anhydrous methanol used in the measurement of relative quantum yield of the 2-ethyl benzo[g]quinoline carboxylic acid was purchased from Alfa Aesar and was used without further purification. For these measurements, known procedures were used (Lee and Grissom, “Design, Synthesis, and Characterization of Fluorescent Cobalamin Analogues with High Quantum Efficiencies,” Org. Lett. 11:2499-2502 (2009); Joseph R. Lakowicz, Principles of Fluorescence Spectroscopy, 2nd edition (Kluwer Academic/Plenum Publishers, 1999), which are hereby incorporated by reference in their entirety). Briefly, RNA (10 μM stock) in HBS-N buffer was titrated into a solution of 1 μM compound in HBS-N. After each addition of RNA, ten minutes were allowed for equilibration before recording the change in fluorescence at 468.5 nm. […]
Selected equilibrium affinities for (CUG)10 were confirmed by fluorescence titration. […]

As for `CCc1nc2cc3ccccc3cc2cc1C(=O)N1CCC[C@H]1C(=O)N[C@@H](C/C=C\C[C@H](NC(=O)[C@@H]1CCCN1C(=O)c1cc2cc3ccccc3cc2nc1CC)C(=O)N[C@@H](CCCCN)C(=O)NCCCN)C(=O)N[C@@H](CCCCN)C(=O)NCCCN` [Compound 4], in assay [1], the “Residence time (t1/2) for compound binding to RNA” value was determined as 9.7882 min and the “improvement in affinity relative to compound 1” value is listed as “roughly 50 fold”. Besides, in assay [1] (SPR), the “Off-rates (koff)” value came to 0.00118 s⁻¹ and the “On-rates (kon)” value turned out to be 27800 M⁻¹ s⁻¹. Besides, the Kd in assay [1] (SPR, read-out: apparent KD) was found to be 45 ± 3.3 nM. Besides, in assay [1] (Table 7, SPR), the ka result is “ka = 2.78E+4/M * s” and the kd entry is recorded as “kd = 1.18E−3/s”. Besides, the Kd in assay [1] (Table 7, SPR, read-out: KD) turned out to be 45 nM. On (CUG)10 RNA, the Kd was 66.3 ± 2.1 nM. Besides, in the assay with yeast tRNA, the “binding of yeast tRNA” value is “No binding”.

As to `CCc1nc2cc3ccccc3cc2cc1C(=O)N1CCC[C@H]1C(=O)N[C@@H](C/C=C/C[C@H](NC(=O)[C@@H]1CCCN1C(=O)c1cc2cc3ccccc3cc2nc1CC)C(=O)N[C@@H](CCCCN)C(=O)NCCCN)C(=O)N[C@@H](CCCCN)C(=O)NCCCN` [Compound 5], in assay [1], the “Residence time (t1/2) for compound binding to RNA” value was determined as 4.6762 min and the “improvement in affinity relative to compound 1” value was “roughly 50 fold”. In assay [1] (SPR), the “Off-rates (koff)” value came to 0.00247 s⁻¹ and the “On-rates (kon)” value is 28400 M⁻¹ s⁻¹. Besides, the Kd in assay [1] (SPR, read-out: apparent KD) amounted to 88.2 ± 0.28 nM. Also, in assay [1] (Table 7, SPR), the ka result is on record as “ka = 2.84E+4/M * s” and the kd entry was “kd = 2.47E−3/s”. Besides, the Kd in assay [1] (Table 7, SPR, read-out: KD) was found to be 88 nM. Further, the Kd at (CUG)10 RNA worked out at 70.4 ± 1.1 nM. Further, the “binding of yeast tRNA” value in the assay with yeast tRNA was “No binding”.

Values taken from US20140050778A1, “NUCLEIC ACID BINDING COMPOUNDS, METHODS OF MAKING, AND USE THEREOF” (UNIVERSITY OF ROCHESTER, priority 2010, published 2014).
